Reference: patent publication US20180318199A1, “Pharmaceutical Composition Having Anti-Aging Properties against High-Glucose” (TAIWAN LEADER BIOTECH CORP., priority 2017, published 2018)
Entries after “also recorded” stand apart in the source; their conditions may differ.

How the values were obtained:
Type in all cases: cell-based, human
[1] = system: p16^INK4A, p21^CIP1 and SMP30; test: Western blot of senescence-associated marker proteins in HNDFs
Procedure: In addition, in FIG. 2C, HNDFs are incubated with ANA (10 μM), ANH (10 μM) and ANM (10 μM) in the presence of HG (30 mM) for 72 h. Senescence-associated marker proteins such as p16^INK4A, p21^CIP1 and SMP30 are determined by western blot analysis.
In order to assess the cellular and molecular basis of the ANM-mediated inhibition of senescence, the expression levels of senescence-associated marker proteins including, p16^INK4A and p21^CIP1 are examined. In FIG. 4D, to determine the effect of ANM on senescence-associated protein expression, HNDFs are incubated with ANM (10 μM) or NAC (100 μM) in the presence or absence of HG (30 mM) for 72 h. Immunoblotting analysis is used to determine the protein levels with corresponding specific antibodies.
(§1) Cells are lysed by either RIPA lysis buffer or nuclear and cytoplasmic extraction reagents (Thermo Fisher Scientific). Protein concentrations are determined by Bio-Rad protein assay reagent (Bio-Rad Laboratories, Hercules, Calif.). Equal amounts of protein samples (60 μg) are separated by 7-12% SDS-PAGE and the separated proteins are transferred onto polyvinylidene […] (PVDC) membrane overnight. The transferred protein membranes are blocked with 5% non-fat dried milk for 30 min, followed by incubation with specific primary antibodies overnight, and either horseradish peroxidase-conjugated goat anti-rabbit or anti-mouse antibodies for 2 h. The blots are detected using VL Chemi-Smart 3000 (Viogene Biotek, Sunnyvale, Calif.) with the enhanced chemiluminescence (ECL) western blotting reagent (Millipore, Billerica, Mass.).

[2] = system: SIRT-1, SIRT-3 and SIRT-6; test: RT-PCR/Q-PCR of SIRT genes in HNDFs; details: 72 h
From the text: As shown in the figures, to determine whether ANM regulates HNDF senescence through a SIRT-1-mediated pathway, expression levels of SIRT genes SIRT-1, SIRT-3 and SIRT-6 are is examined.
Total RNA is extracted and subjected to Q-PCR analysis to monitor SIRT-1, SIRT-3 and SIRT-6 expression. Relative mRNA levels are normalized by β-actin mRNA. Previous studies have shown that exposure of endothelial cells to HG rapidly decreases levels of expression of SIRT genes.
Total RNA is extracted from cultured HNDFs using Trizol Reagent (Thermo Fisher Scientific). Q-PCR analysis is performed using Applied Biosystems detection instruments and software. Forward and reverse primers (10 μM), and the working solution SYBR green, is used as a PCR master mix, under the following conditions: 96° C. for 3 minutes followed by 40 cycles at 96° C. for 1 minute, 50° C. for 30 seconds and 72° C. for 90 seconds. GAPDH is used as an internal standard to control for variability in amplification because of differences in starting mRNA concentrations. The copy number of each transcript is calculated as the relative copy number normalized by GAPDH copy number.

SIRT-1, SIRT-3, SIRT-6 = test: Western blot of SIRT proteins and phos-SIRT-1 in HNDFs; details: 72 h
Procedure: Total cell lysate is extracted and subjected to western blot analysis to monitor SIRT-1, SIRT-3, SIRT-6 protein levels.
The protein expression levels of SIRT-1, SIRT-6, p21^CIP1, SMP30, p53, FoxO and acetylation of p53 and FoxO1 are determined by western blot analysis.
To further understand the regulation of SIRT-1 by ANM, the effect of ANM on SIRT-1 activation and protein stability is examined under hyperglycemic conditions. In FIG. 7I, cells are incubated with JNK/SAPK or p38 MAPK inhibitors SP600125 (SP, 30 μM) and SB203580 (SB, 30 μM) in the presence of HG for 72 h. The protein expression levels of phos-SIRT-1 and SIRT-1 are determined by western blotting. Results are expressed as mean±S.E.M of three independent experiments. Statistical significance is set at ^ϕP<0.05 as compared to NG vs. HG and *P<0.05 as compared to HG vs. samples. Previous studies have shown that hyperphosphorylation of SIRT-1 at serine 47 (Ser47) is correlated with enhanced endothelial senescence. In addition, persistent activation of JNK1/2 by multiple factors including hyperglycemia induces extensive SIRT-1 proteasome degradation followed by phosphorylation at Ser47. […] Therefore, it is hypothesized that ANM-mediated suppression of JNK1/2 and p38 MAPK activation may have a functional role in the stability of SIRT-1 protein.
as §1

HUVECs = test: SA-β-gal senescence assay in HUVECs; details: ANM 10 μM + HG 30 mM, 48 h; HG alone 6.38-fold
Procedure: Please refer to FIG. 9A˜FIG. 9H, which are views showing HG-induced senescence prevented by ANM in human umbilical vein endothelial cells (HUVECs). As shown in the figures, to further delineate the protective effects of ANM on another cell system, experiments are designed to investigate the protective effect of ANM on HUVECs incubated in media containing either NG or HG alone or with ANM for 48 h. Cell viability is measured by MTT assay. […] Cell viability is determined by MTT assay. Percentage of viable cells are normalized with control cells (NG). […] In addition, in FIG. 9B, cellular senescence is determined by SA-β-gal activity assay. […] In addition, in FIG. 9C and FIG. 9D, total cell lysate is extracted and senescence-associated marker proteins including p16^INK4A, p21^CIP1 total and acetylated p53 and FoxO1 are measured by western blot analysis.
Senescence-associated β-galactosidase (SA-β-gal) activity is determined in formaldehyde-fixed histochemical staining kit according to the manufacturer's instructions (Cell Signaling Technology, Danvers, Calif.). Briefly, cells are grown in 6-well plates at a density of 5×10^4 cells/well, and incubated with HG or test samples for 48 h (HUVECs) or 72 h (HNDFs). […]

C=C(CCC(C)C1CCC2C3=C(C(=O)C(O)C21C)C1(C)CCC(O)C(C)C1CC3)C(C)C(=O)O (stereo not drawn) [ANM, antcin M]
SMP30 protein under HG (western blot) ([1]; 10 μM + HG 30 mM, 72 h): significantly upregulated | HG-induced p16^INK4A and p21^CIP1 protein expression ([1]; 10 μM + HG 30 mM, 72 h, western blot): significantly downregulated; also recorded: significantly attenuates | basal level of p21^CIP1 expression ([1]; ANM alone, no HG): significantly reduces | SIRT-1 and SIRT-6 mRNA, HG-induced depletion ([2]; ANM 10 μM + HG, Q-PCR): rescues | SIRT-1, SIRT-3 and SIRT-6 levels (RT-PCR) ([2]; ANM 10 μM, no HG, vs control): significantly increased | HG-induced reduction in SIRT-1, SIRT-3 and SIRT-6 proteins (SIRT-1, SIRT-3, SIRT-6; ANM 10 μM + HG 30 mM): significantly prevented | SIRT-1 and SIRT-6 expression, control siRNA cells (SIRT-1, SIRT-3, SIRT-6; ANM 10 μM + HG): significantly increases | HG-induced SIRT-1 phosphorylation at Ser47 (SIRT-1, SIRT-3, SIRT-6; ANM or RES + HG): significantly attenuates | SA-β-gal staining in HUVECs (HUVECs): 1.36 fold
